Test results taken from patent US20050245399A1, “Pyrazole derivatives as herbicidal compositions containing them” (ISHIHARA SANGYO KAISHA, LTD., priority 2004, published 2005).

Experiments:
Type in all cases: in vivo
[1] = test system: velvetleaf (Abutilon theophrasti), ABUTH; assay: Test Example 2 post-emergence (foliage treatment) herbicidal activity, ABUTH; conditions: 63 g a.i./ha
Procedure, shortened: (§1)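 Each species was evaluated for growth suppression by eye, 0% matching untreated and 100% meaning death, some 20 to 23 days after a single post-emergence foliar treatment applied in 500 L/ha of water carrying 0.1% (v/v) agricultural spreader.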

[2] = test system: soybean (Glycine max Merr.), GLXMA; assay: Test Example 2 post-emergence (foliage treatment) herbicidal activity, GLXMA; conditions: 63 g a.i./ha
Procedure, shortened: as §1

[3] = test system: japanese ribbon wapato (Sagittaria pygmaea: SA GPY); assay: Test Example 3 water application herbicidal activity (paddy), SAGPY; conditions: 63 g a.i./ha, water application under submerged condition, tubers planted, visually observed 14th day after application; 0 = untreated control, 100 = complete kill
Procedure, shortened: (§2)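 Compound, as diluted wettable powder or emulsifiable concentrate, was pipetted into flood water at a set active-ingredient dose. Weeds were treated at 0.5-leaf stage after sowing or tuber planting; 2-leaf rice 4 days post-transplant. Control scored visually, 0 untreated to 100 complete kill, weeds day 14, rice day 21.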

[4] = test system: green foxtail (Setaria viridis L.): SETVI; assay: Test Example 1 pre-emergence herbicidal activity, SETVI; conditions: visually observed 20th to 23rd day after application
Procedure, shortened: (§3)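 Pots of upland soil were sown, and one day later WP or EC formulations at set active-ingredient rates were sprayed pre-emergence in 500 L/ha water. Growth control scored visually 20–23 days after application, 0 (as untreated) to 100 (complete kill).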

[5] = test system: rice (Oryza sativa L.: ORYSA); assay: Test Example 3 water application herbicidal activity (paddy), transplanted rice ORYSA; conditions: 63 g a.i./ha, water application 4th day after transplantation of 2 leaf stage rice, visually observed 21st day after application; 0 = untreated control, 100 = complete kill
Procedure, shortened: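 Flooded paddy-soil pots in greenhouse; ECHOR and SCPJO sown, SAGPY tubers planted a day later, compound applied into 3–4 cm water at weeds' 0.5-leaf stage. Rice transplanted at 2-leaf stage, treated day 4 after transplanting. Visual growth control 0–100% at 14 days (weeds) and 21 days (rice) after application.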

[6] = test system: soybean (Glycine max Merr.): GLXMA; assay: Test Example 1 pre-emergence herbicidal activity, GLXMA; conditions: visually observed 20th to 23rd day after application
Procedure, shortened: as §3

[7] = test system: crabgrass (Digitaria sanguinalis L.): DIGSA; assay: Test Example 1 pre-emergence herbicidal activity, DIGSA; conditions: visually observed 20th to 23rd day after application
Procedure, shortened: as §3

[8] = test system: prickly sida (Sida spinosa L.), SIDSP; assay: Test Example 2 post-emergence (foliage treatment) herbicidal activity, SIDSP; conditions: 63 g a.i./ha
Procedure, shortened: as §1

[9] = test system: crabgrass (Digitaria sanguinalis L.), DIGSA; assay: Test Example 2 post-emergence (foliage treatment) herbicidal activity, DIGSA; conditions: 63 g a.i./ha
Procedure, shortened: (§4)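 Plants grown in upland soil pots were sprayed on foliage at set leaf stages (ECHCG 1.1-2.1, DIGSA 1.0-2.0, AMARE 0.1-1.5, ORYSA 1.0-2). Formulated compound was applied at predetermined active-ingredient amounts in 500 L/ha water with 0.1% (v/v) spreader. Growth control (0–100%) was visually scored 20–23 days later.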

[10] = test system: rice (Oryza sativa L.): ORYSA; assay: Test Example 1 pre-emergence herbicidal activity, ORYSA; conditions: visually observed 20th to 23rd day after application
Procedure, shortened: as §3

[11] = test system: corn (Zea mays L.): ZEAMX; assay: Test Example 1 pre-emergence herbicidal activity, ZEAMX; conditions: visually observed 20th to 23rd day after application
Procedure, shortened: as §3

[12] = test system: barnyardgrass (Echinochiloa oryzicola: ECHOR); assay: Test Example 3 water application herbicidal activity (paddy), ECHOR; conditions: 63 g a.i./ha, water application under submerged condition at 0.5 leaf stage, visually observed 14th day after application; 0 = untreated control, 100 = complete kill
Procedure, shortened: as §2

[13] = test system: wheat (Triticum aestivum L.): TRZAX; assay: Test Example 1 pre-emergence herbicidal activity, TRZAX; conditions: visually observed 20th to 23rd day after application
Procedure, shortened: as §3

[14] = test system: wheat (Triticum aestivum L.), TRZAX; assay: Test Example 2 post-emergence (foliage treatment) herbicidal activity, TRZAX; conditions: 63 g a.i./ha
Procedure, shortened: as §1

[15] = test system: green foxtail (Setaria viridis L.), SETVI; assay: Test Example 2 post-emergence (foliage treatment) herbicidal activity, SETVI; conditions: 63 g a.i./ha
Procedure, shortened: as §1

[16] = test system: barnyardgrass (Echinochloa crus-galli L.): ECHCG; assay: Test Example 1 pre-emergence herbicidal activity, ECHCG; conditions: visually observed 20th to 23rd day after application
Procedure, shortened: as §3

[17] = test system: rice (Oryza sativa L.), ORYSA; assay: Test Example 2 post-emergence (foliage treatment) herbicidal activity, ORYSA; conditions: 63 g a.i./ha
Procedure, shortened: as §4

[18] = test system: prickly sida (Sida spinosa L.): SEDSP; assay: Test Example 1 pre-emergence herbicidal activity, SIDSP; conditions: visually observed 20th to 23rd day after application
Procedure, shortened: as §3

[19] = test system: japanese bulrush (Scirpus juncoides: SCPJO); assay: Test Example 3 water application herbicidal activity (paddy), SCPJO; conditions: 63 g a.i./ha, water application under submerged condition at 0.5 leaf stage, visually observed 14th day after application; 0 = untreated control, 100 = complete kill
Procedure, shortened: as §2

[20] = test system: barnyardgrass (Echinochloa crus-galli L.), ECHCG; assay: Test Example 2 post-emergence (foliage treatment) herbicidal activity, ECHCG; conditions: 63 g a.i./ha
Procedure, shortened: as §4

[21] = test system: redroot pigweed (Amaranthus retroflexus L.): AMARE; assay: Test Example 1 pre-emergence herbicidal activity, AMARE; conditions: visually observed 20th to 23rd day after application
Procedure, shortened: as §3

[22] = test system: velvetleaf (Abutilon theophrasti): ABUTH; assay: Test Example 1 pre-emergence herbicidal activity, ABUTH; conditions: visually observed 20th to 23rd day after application
Procedure, shortened: as §3

[23] = test system: corn (Zea mays L.), ZEAMX; assay: Test Example 2 post-emergence (foliage treatment) herbicidal activity, ZEAMX; conditions: 63 g a.i./ha
Procedure, shortened: as §1

[24] = test system: redroot pigweed (Amaranthus retroflexus L.), AMARE; assay: Test Example 2 post-emergence (foliage treatment) herbicidal activity, AMARE; conditions: 63 g a.i./ha
Procedure, shortened: as §4

Compound | growth controlling degree, ABUTH [1] | growth controlling degree, GLXMA [2] | growth controlling degrees (%) SAGPY [3] | growth controlling degrees (%) ORYSA [5] | growth controlling degree, SIDSP [8] | growth controlling degree, DIGSP [9] | growth controlling degrees (%) ECHOR [12] | growth controlling degree, TRZAX [14] | growth controlling degree, SETVI [15] | growth controlling degree, ORYSA [17] | growth controlling degrees (%) SCPJO [19] | growth controlling degree, ECHCO [20] | growth controlling degree, ZEAMX [23] | growth controlling degree, AMARE [24] | Pre-emergence Herbicidal Activity SETVI (growth controlling degree) ([4]; Rate 63 g a.i./ha) | Pre-emergence Herbicidal Activity GLXMA (growth controlling degree) ([6]; Rate 63 g a.i./ha) | Pre-emergence Herbicidal Activity DIGSP (growth controlling degree) ([7]; Rate 63 g a.i./ha) | Pre-emergence Herbicidal Activity ORYSA (growth controlling degree) ([10]; Rate 63 g a.i./ha) | Pre-emergence Herbicidal Activity ZEAMX (growth controlling degree) ([11]; Rate 63 g a.i./ha) | Pre-emergence Herbicidal Activity TRZAX (growth controlling degree) ([13]; Rate 63 g a.i./ha) | other results
COc1c(Cl)cc(F)c(-c2nn(C)c(OC(F)F)c2Cl)c1N(C(=O)OCCl)C(=O)OCCl [Compound 1-55] | 100% | 30% | 100% | 50% | 100% | 0% | 100% | 10% | 30% | 50% | 95% | 60% | 10% | 100% | – | – | – | – | – | – | Pre-emergence Herbicidal Activity SETVI (growth controlling degree) ([4]; Rate 125 g a.i./ha): 100%; Pre-emergence Herbicidal Activity GLXMA (growth controlling degree) ([6]; Rate 125 g a.i./ha): 0%; Pre-emergence Herbicidal Activity DIGSP (growth controlling degree) ([7]; Rate 125 g a.i./ha): 95%; Pre-emergence Herbicidal Activity ORYSA (growth controlling degree) ([10]; Rate 125 g a.i./ha): 10%; Pre-emergence Herbicidal Activity ZEAMX (growth controlling degree) ([11]; Rate 125 g a.i./ha): 0%; Pre-emergence Herbicidal Activity TRZAX (growth controlling degree) ([13]; Rate 125 g a.i./ha): 20%; Pre-emergence Herbicidal Activity ECHCG (growth controlling degree) ([16]; Rate 125 g a.i./ha): 50%; Pre-emergence Herbicidal Activity SIDSP (growth controlling degree) ([18]; Rate 125 g a.i./ha): 95%; Pre-emergence Herbicidal Activity AMARE (growth controlling degree) ([21]; Rate 125 g a.i./ha): 100%; Pre-emergence Herbicidal Activity ABUTH (growth controlling degree) ([22]; Rate 125 g a.i./ha): 70%
COc1ccc(COC(=O)Nc2c(OC)c(Cl)cc(F)c2-c2nn(C)c(OC(F)F)c2Cl)cc1 [Compound 1-56] | 100% | 100% | 80% | 35% | 100% | 98% | 100% | 50% | 100% | 90% | 95% | 90% | 80% | 100% | 80% | 0% | 70% | 20% | 10% | 0% | Pre-emergence Herbicidal Activity ECHCG (growth controlling degree) ([16]; Rate 63 g a.i./ha): 50%; Pre-emergence Herbicidal Activity SIDSP (growth controlling degree) ([18]; Rate 63 g a.i./ha): 70%; Pre-emergence Herbicidal Activity AMARE (growth controlling degree) ([21]; Rate 63 g a.i./ha): 100%; Pre-emergence Herbicidal Activity ABUTH (growth controlling degree) ([22]; Rate 63 g a.i./ha): 60%
COc1ccc(OC(=O)Nc2c(OC)c(Cl)cc(F)c2-c2nn(C)c(OC(F)F)c2Cl)cc1 [Compound 1-57] | 100% | 90% | 100% | 50% | 100% | 100% | 100% | 40% | 100% | 95% | 100% | 100% | 90% | 100% | 95% | 0% | 80% | 20% | 0% | 30% | Pre-emergence Herbicidal Activity ECHCG (growth controlling degree) ([16]; Rate 63 g a.i./ha): 70%; Pre-emergence Herbicidal Activity SIDSP (growth controlling degree) ([18]; Rate 63 g a.i./ha): 70%; Pre-emergence Herbicidal Activity AMARE (growth controlling degree) ([21]; Rate 63 g a.i./ha): 100%; Pre-emergence Herbicidal Activity ABUTH (growth controlling degree) ([22]; Rate 63 g a.i./ha): 60%
COCCOC(=O)Nc1c(OC)c(Cl)cc(F)c1-c1nn(C)c(OC(F)F)c1Cl [Compound 1-61] | 100% | 80% | 100% | 95% | 100% | 100% | 100% | 60% | 100% | 80% | 90% | 100% | 80% | 100% | 100% | 10% | 100% | 70% | 30% | 50% | Pre-emergence Herbicidal Activity ECHCG (growth controlling degree) ([16]; Rate 63 g a.i./ha): 100%; Pre-emergence Herbicidal Activity SIDSP (growth controlling degree) ([18]; Rate 63 g a.i./ha): 100%; Pre-emergence Herbicidal Activity AMARE (growth controlling degree) ([21]; Rate 63 g a.i./ha): 100%; Pre-emergence Herbicidal Activity ABUTH (growth controlling degree) ([22]; Rate 63 g a.i./ha): 100%
COC(=O)Nc1c(OC)c(Cl)cc(F)c1-c1nn(C)c(OC(F)F)c1Cl [Compound 1-62] | 100% | 80% | 100% | 70% | 100% | 100% | 100% | 30% | 100% | 80% | 100% | 100% | 80% | 100% | 100% | 20% | 100% | 80% | 30% | 60% | Pre-emergence Herbicidal Activity ECHCG (growth controlling degree) ([16]; Rate 63 g a.i./ha): 100%; Pre-emergence Herbicidal Activity SIDSP (growth controlling degree) ([18]; Rate 63 g a.i./ha): 100%; Pre-emergence Herbicidal Activity AMARE (growth controlling degree) ([21]; Rate 63 g a.i./ha): 100%; Pre-emergence Herbicidal Activity ABUTH (growth controlling degree) ([22]; Rate 63 g a.i./ha): 100%
